The source of these data is patent publication US8399436B2, “N-pyrazolyl carboxamides as CRAC channel inhibitors” (Glaxo Group Limited, priority 2009, dated 2013).

SMILES strings stand for the structures. Where a name gives a salt, the structure may show the parent alone.

This experiment concerns the target ICRAC current (calcium release activated calcium channel) (Homo sapiens, UniProt Q96D31). The class given is cell-based. The note with it: Jurkat E6-1 cells; at a final assay concentration of 15 μM.

ICRAC current (calcium release activated calcium channel), sequence (Q96D31 whole entry): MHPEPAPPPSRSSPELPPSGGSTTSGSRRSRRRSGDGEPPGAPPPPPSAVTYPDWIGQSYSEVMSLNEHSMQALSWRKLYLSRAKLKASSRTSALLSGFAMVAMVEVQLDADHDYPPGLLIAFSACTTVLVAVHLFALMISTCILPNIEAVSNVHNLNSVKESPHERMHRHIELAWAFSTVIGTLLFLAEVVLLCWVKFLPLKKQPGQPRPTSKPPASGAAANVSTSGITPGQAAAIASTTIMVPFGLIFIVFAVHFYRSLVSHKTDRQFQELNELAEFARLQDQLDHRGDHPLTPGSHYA
ICRAC current (calcium release activated calcium channel), sequence (Q13586 23-685, further chain): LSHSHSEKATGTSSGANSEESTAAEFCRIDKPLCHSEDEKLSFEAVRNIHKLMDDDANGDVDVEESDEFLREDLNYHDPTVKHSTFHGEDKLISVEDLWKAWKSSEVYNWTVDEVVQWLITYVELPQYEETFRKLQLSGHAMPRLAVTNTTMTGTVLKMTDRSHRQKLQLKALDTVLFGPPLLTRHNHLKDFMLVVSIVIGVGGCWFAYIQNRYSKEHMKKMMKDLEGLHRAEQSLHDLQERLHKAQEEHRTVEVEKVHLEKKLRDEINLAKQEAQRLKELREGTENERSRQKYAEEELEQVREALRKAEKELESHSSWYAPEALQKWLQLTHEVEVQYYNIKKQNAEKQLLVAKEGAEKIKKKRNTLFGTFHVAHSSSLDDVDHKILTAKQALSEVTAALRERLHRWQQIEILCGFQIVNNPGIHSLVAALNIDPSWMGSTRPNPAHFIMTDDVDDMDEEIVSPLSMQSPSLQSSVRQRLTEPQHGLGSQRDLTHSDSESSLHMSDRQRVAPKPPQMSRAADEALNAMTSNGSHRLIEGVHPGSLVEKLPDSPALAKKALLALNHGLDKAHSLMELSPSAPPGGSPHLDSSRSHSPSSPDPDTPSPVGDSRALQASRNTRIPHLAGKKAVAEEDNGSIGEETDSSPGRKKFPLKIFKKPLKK
Method: This ICRAC assay uses the SERCA inhibitor thapsigargin to produce calcium depletion and activate an ICRAC current. […] Changes in intracellular calcium levels are determined by the inclusion of the calcium sensitive fluorescent dye Fluo-4 and the use of the FLIPR detection system. Inhibitors of ICRAC would be expected to decrease the calcium influx upon calcium add-back, thus reducing fluorescent signal.
Jurkat E6-1 is an established immortalised T lymphocyte cell line previously shown to express a functional ICRAC current. Jurkat cells grow in suspension, are cultured in DMEM+10% FBS, maintained in T175 flasks at 37° C./5% CO2, and are subcultured twice a week with either 1:10-1:20 splits. 1 confluent T175 yields 100 ml of approximately 2×10^6 cells/ml.
Loading buffer contains; NaCl 145 mM, KCl 2.5 mM, HEPES 10 mM, Glucose 10 mM, MgCl2 1.2 mM, made up with water, then pH adjusted to 7.4 using NaOH 1 M. Finally Fluo-4AM & brilliant black are added to give a final assay concentration of 2 μM and 250 μM respectively.
The required seeding density for a 384 plate is 20,000 cells per well. […] Plates are then transferred to the FLIPR which initially measures baseline fluorescence, followed by any increase in fluorescence evoked by the online addition of a 6 mM (1.2 mM FAC) calcium solution. […]

Usually pIC50 stands for the IC50 on a negative log10 scale, so that one unit is a factor of ten. `O=C(c1c(F)cccc1F)N(COP(=O)(O)O)c1ccn(Cc2c(F)cccc2C(F)(F)F)n1` [Example 187, [[(2,6-Difluorophenyl)carbonyl](1-{[2-fluoro-6-(trifluoromethyl)phenyl]methyl}-1H-pyrazol-3-yl)amino]methyl dihydrogen phosphate disodium salt]: the pIC50 was under 4.8.
Next, `O=C(Nc1ccn(Cc2ccc(OP(=O)([O-])[O-])cc2C(F)(F)F)n1)c1c(F)cccc1F.[Na+].[Na+]` [Example 186, 4-[(3-{[(2,6-Difluorophenyl)carbonyl]amino}-1H-pyrazol-1-yl)methyl]-3-(trifluoromethyl)phenyl dihydrogen phosphate disodium salt]: 4.9.
